By inhibition is commonly meant how much of the control response was suppressed. One may read the IC50 as the concentration that gives 50% inhibition. Higher therefore signals a need for much substance.

The values that follow come from patent publication US7442805B2, “Substituted sulfonamide-indoles” (Wyeth, priority 2003, dated 2008).

Experiment [1] concerns the target T1, recombinant human plasminogen activator inhibitor-1 (PAI-1) (Homo sapiens, UniProt P05121).
T1 construct: purchased Molecular Innovations, Royal Oak, Mich
The experiment can be described thus: Primary screen for the PAI-1 inhibition (chromogenic tPA activity assay). It counts as biochemical. The note with it: pH 6.6, 140 nM PAI-1, 70 nM tPA; for inhibition at 10 µM: 10 μM test compound; for inhibition at 25 µM: 25 μM test compound. As to the method: Primary Screen for the PAI-1 Inhibition
Test compounds are dissolved in DMSO at a final concentration of 10 mM, then diluted 100× in physiologic buffer. The inhibitory assay is initiated by the addition of the test compound (1-100 μM final concentration, maximum DMSO concentration of 0.2%) in a pH 6.6 buffer containing 140 nM recombinant human plasminogen activator inhibitor-1 (PAI-1; Molecular Innovations, Royal Oak, Mich.). Following a 1 hour incubation at room temperature, 70 nM of recombinant human tissue plasminogen activator (tPA) is added, and the combination of the test compound, PAI-1 and tPA is incubated for an additional 30 minutes. Following the second incubation, Spectrozyme-tPA (American Diagnostica, Greenwich, Conn.), a chromogenic substrate for tPA, is added and absorbance read at 405 nm at 0 and 60 minutes. Relative PAI-1 inhibition is equal to the residual tPA activity in the presence of the test compound and PAI-1. Control treatments include the complete inhibition of tPA by PAI-1 at the molar ratio employed (2:1), and the absence of any effect of the test compound on tPA alone.

The target in the next experiment is human PAI-1 (Homo sapiens, UniProt P05121). The experiment in a line: Assay for determining IC50 of inhibition of PAI-1 (tPA-coated plate, antibody detection of active PAI-1). It counts as binding. The settings on record: active PAI-1 bound to tPA-coated plate; pH 7.5. How it is done: Assay for determining IC50 of Inhibition of PAI-1
This assay is based upon the non-SDS dissociable interaction between tPA and active PAI-1. Assay plates are initially coated with human tPA (10 μg/ml). Test compounds of the present invention are dissolved in DMSO at 10 mM, then diluted with physiologic buffer (pH 7.5) to a final concentration of […]. Test compounds are incubated with human PAI-1 (50 ng/ml) for 15 minutes at room temperature. The tPA-coated plate is washed with a solution of 0.05% Tween 20 and 0.1% BSA, then the plate is blocked with a solution of 3% BSA. An aliquot of the substituted sulfonamide indole/PAI-1 solution is then added to the tPA-coated plate, incubated at room temperature for 1 hour, and washed. Active PAI-1 bound to the plate is assessed by adding an aliquot of a 1:1000 dilution of the 33B8 monoclonal antibody against human PAI-1, and incubating the plate at room temperature for 1 hour (Molecular Innovations, Royal Oak, Mich.). The plate is again washed, and a solution of goat anti-mouse IgG-alkaline phosphatase conjugate is added at a 1:50,000 dilution in goat serum. The plate is incubated 30 minutes at room temperature, washed, and a solution of alkaline phosphatase substrate is added. The plate is incubated 45 minutes at room temperature, and color development is determined at OD405 nm. The quantitation of active PAI-1 bound to tPA at varying concentrations of the test compound is used to determine the IC50. Results are analyzed using a logarithmic best-fit equation. The assay sensitivity is 5 ng/ml of human PAI-1 as determined from a standard curve ranging from 0-100 ng/ml.

T1 sequence (P05121 24-402): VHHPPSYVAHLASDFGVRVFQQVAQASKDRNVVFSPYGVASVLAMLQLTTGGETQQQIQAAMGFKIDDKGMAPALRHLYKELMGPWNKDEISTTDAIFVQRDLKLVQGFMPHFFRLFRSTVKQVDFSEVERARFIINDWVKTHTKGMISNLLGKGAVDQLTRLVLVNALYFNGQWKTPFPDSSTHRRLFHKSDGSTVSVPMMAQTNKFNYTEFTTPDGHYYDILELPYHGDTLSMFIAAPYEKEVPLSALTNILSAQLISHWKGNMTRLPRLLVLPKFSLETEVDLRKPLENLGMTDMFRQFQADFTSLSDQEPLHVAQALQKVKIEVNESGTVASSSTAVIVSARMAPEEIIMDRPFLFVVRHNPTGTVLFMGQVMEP
Chain of human PAI-1 (P05121 24-402): as above

For the compound `O=C(O)c1c(-c2ccccc2)c2cc(NS(=O)(=O)c3ccc(OC(F)(F)F)cc3)ccc2n1Cc1ccccc1` [Example 1, 1-benzyl-3-phenyl-5-({[4-(trifluoromethoxy)phenyl]sulfonyl}amino)-1H-indole-2-carboxylic acid], in experiment [1], the inhibition at 10 µM was found to be 33% and the inhibition at 25 µM was 81%. At human PAI-1, this compound displayed an IC50 of 8.3 µM.
For `O=C(O)c1c(-c2ccccc2)c2cc(NS(=O)(=O)c3cccc4cccnc34)ccc2n1Cc1ccccc1` [Example 2, 1-benzyl-3-phenyl-5-[(quinolin-8-ylsulfonyl)amino]-1H-indole-2-carboxylic acid], in experiment [1], the inhibition at 10 µM worked out at 8% and the inhibition at 25 µM was determined as 43%.
As for `CC(C)(C)c1ccc(S(=O)(=O)Nc2ccc3c(c2)c(-c2ccccc2)c(C(=O)O)n3Cc2ccccc2)cc1` [Example 3, 1-benzyl-5-{[(4-tert-butylphenyl)sulfonyl]amino}-3-phenyl-1H-indole-2-carboxylic acid], in experiment [1], the inhibition at 10 µM was 41% and the inhibition at 25 µM came to 82%. This compound registered an IC50 against human PAI-1 of 28.7 µM.
For `O=C(O)c1c(-c2ccccc2)c2cc(NS(=O)(=O)c3ccc(-c4ccccc4)cc3)ccc2n1Cc1ccccc1` [Example 4, 1-benzyl-5-[(1,1′-biphenyl-4-ylsulfonyl)amino]-3-phenyl-1H-indole-2-carboxylic acid] the same measures were 44%, 61% and 23 µM.
In the case of `Cn1c(C(=O)O)c(-c2ccccc2)c2cc(NS(=O)(=O)c3ccc(OC(F)(F)F)cc3)ccc21` [Example 5, 1-methyl-3-phenyl-5-({[4-(trifluoromethoxy)phenyl]sulfonyl}amino)-1H-indole-2-carboxylic acid], the inhibition at 25 µM in experiment [1] amounted to 19%.
Same read-out and setting: the figure for `Cn1c(C(=O)O)c(-c2ccccc2)c2cc(NS(=O)(=O)c3ccc(C(C)(C)C)cc3)ccc21` [Example 6, 5-{[(4-tert-butylphenyl)sulfonyl]amino}-1-methyl-3-phenyl-1H-indole-2-carboxylic acid] is 46%.
Turning to `Cn1c(C(=O)O)c(-c2ccccc2)c2cc(NS(=O)(=O)c3ccc(-c4ccccc4)cc3)ccc21` [Example 7, 5-[(1,1′-biphenyl-4-ylsulfonyl)amino]-1-methyl-3-phenyl-1H-indole-2-carboxylic acid], in experiment [1], the inhibition at 10 µM was 11% and the inhibition at 25 µM is 68%.
In the same order, the values of `CC(C)C[C@H](NC(=O)c1c(-c2ccccc2)c2cc(NS(=O)(=O)c3ccc(OC(F)(F)F)cc3)ccc2n1C)C(=O)O` [Example 8, N-{[1-methyl-3-phenyl-5-({[4-(trifluoromethoxy)phenyl]sulfonyl}amino)-1H-indol-2-yl]carbonyl}-L-leucine] are 18% and 73%.
In the same order, the values of `Cn1c(C(=O)N[C@@H](Cc2ccccc2)C(=O)O)c(-c2ccccc2)c2cc(NS(=O)(=O)c3ccc(-c4ccccc4)cc3)ccc21` [Example 9, N-({5-[(1,1′-biphenyl-4-ylsulfonyl)amino]-1-methyl-3-phenyl-1H-indol-2-yl}carbonyl)-L-phenylalanine] are 8% and 73%.
On to `CC(C)C[C@H](NC(=O)c1c(-c2ccccc2)c2cc(NS(=O)(=O)c3ccc(-c4ccccc4)cc3)ccc2n1C)C(=O)O` [Example 10, N-({5-[(1,1′-biphenyl-4-ylsulfonyl)amino]-1-methyl-3-phenyl-1H-indol-2-yl}carbonyl)-L-leucine], for which, in experiment [1], the inhibition at 10 µM was determined as 15% and the inhibition at 25 µM stood at 74%.
With `Cn1c(C(=O)N[C@@H](Cc2ccccc2)C(=O)O)c(-c2ccccc2)c2cc(NS(=O)(=O)c3ccc(C(C)(C)C)cc3)ccc21` [Example 11, N-[(5-{[(4-tert-butylphenyl)sulfonyl]amino}-1-methyl-3-phenyl-1H-indol-2-yl)carbonyl]-L-phenylalanine], in experiment [1], the inhibition at 10 µM amounted to 15% and the inhibition at 25 µM amounted to 77%.
For `CC(C)C[C@H](NC(=O)c1c(-c2ccccc2)c2cc(NS(=O)(=O)c3ccc(C(C)(C)C)cc3)ccc2n1C)C(=O)O` [Example 12, N-[(5-{[(4-tert-butylphenyl)sulfonyl]amino}-1-methyl-3-phenyl-1H-indol-2-yl)carbonyl]-L-leucine] the same measures were 14% and 64%.
For `CS(=O)(=O)Nc1ccc2c(c1)c(-c1ccccc1)c(C(=O)O)n2Cc1ccc(-c2ccccc2)cc1` [Example 13, 1-(1,1′-biphenyl-4-ylmethyl)-5-[(methylsulfonyl)amino]-3-phenyl-1H-indole-2-carboxylic acid] the same measures were 24% and 62%.
Regarding `O=C(O)c1c(-c2ccccc2)c2cc(NS(=O)(=O)c3ccccc3)ccc2n1Cc1ccc(-c2ccccc2)cc1` [Example 14, 1-(1,1′-biphenyl-4-ylmethyl)-3-phenyl-5-[(phenylsulfonyl)amino]-1H-indole-2-carboxylic acid], in experiment [1], the inhibition at 10 µM amounted to 77% and the inhibition at 25 µM was 87%. This compound also yielded an IC50 against human PAI-1 of 28 µM.
Regarding `CS(=O)(=O)Nc1ccc2c(c1)c(-c1ccccc1)c(C(=O)O)n2C(c1ccccc1)c1ccccc1` [Example 15, 1-benzhydryl-5-[(methylsulfonyl)amino]-3-phenyl-1H-indole-2-carboxylic acid], in experiment [1], the inhibition at 10 µM came to 10% and the inhibition at 25 µM turned out to be 36%.
For `O=C(O)c1c(-c2ccccc2)c2cc(NS(=O)(=O)c3ccccc3)ccc2n1C(c1ccccc1)c1ccccc1` [Example 16, 1-benzhydryl-3-phenyl-5-[(phenylsulfonyl)amino]-1H-indole-2-carboxylic acid] the same measures were 68% and 89%.
For `CC(C)(C)c1ccc(-c2c(C(=O)O)n(Cc3ccccc3)c3ccc(NS(=O)(=O)c4ccc(OC(F)(F)F)cc4)cc23)cc1` [Example 17, 1-Benzyl-3-(4-tert-butylphenyl)-5-({[4-(trifluoromethoxy)phenyl]sulfonyl}amino)-1H-indole-2-carboxylic acid] the same measures were 43% and 84%.
For `O=C(O)c1c(-c2ccc3[nH]ccc3c2)c2cc(NS(=O)(=O)c3ccccc3)ccc2n1Cc1ccccc1` [Example 18, 1-benzyl-5-[(phenylsulfonyl)amino]-1H,1′H-3,5′-biindole-2-carboxylic acid] the same measures were 19% and 55%.
Take `O=C(O)c1[nH]c2ccc(NS(=O)(=O)c3ccc(OC(F)(F)F)cc3)cc2c1-c1ccccc1` [Example 19, 3-phenyl-5-({[4-(trifluoromethoxy)phenyl]sulfonyl}amino)-1H-indole-2-carboxylic acid]: in experiment [1], the inhibition at 10 µM was found to be 12% and the inhibition at 25 µM was determined as 50%.
For `CC(C)(C)c1ccc(S(=O)(=O)Nc2ccc3[nH]c(C(=O)O)c(-c4ccccc4)c3c2)cc1` [Example 20, 5-{[(4-tert-butylphenyl)sulfonyl]amino}-3-phenyl-1H-indole-2-carboxylic acid], in experiment [1], the inhibition at 10 µM came out at 20% and the inhibition at 25 µM turned out to be 81%. The same compound had an IC50 at human PAI-1 of 28.4 µM.
On to `O=C(O)c1[nH]c2ccc(NS(=O)(=O)c3ccc(-c4ccccc4)cc3)cc2c1-c1ccccc1` [Example 21, 5-[(1,1′-biphenyl-4-ylsulfonyl)amino]-3-phenyl-1H-indole-2-carboxylic acid], for which, in experiment [1], the inhibition at 10 µM stood at 29% and the inhibition at 25 µM is 86%. The IC50 against human PAI-1 amounted to 19.5 µM.
